Reference: US20240109972A1, “ANTIBODY AND TAXANE COMBINATION THERAPY” (Genmab A/S, priority 2020, published 2024)

Test system: metastatic NSCLC
Assay: GEN1046 in combination with docetaxel in metastatic NSCLC subjects, efficacy (RECIST v1.1)
Type: in vivo, human
Settings: six subjects dosed with GEN1046 and 75 mg/m^2 Docetaxel
Protocol: Docetaxel was administered at a dose of 55 mg/m^2 or 75 mg/m^2 depending on the number of prior Dose Limiting Toxicities observed. The maximum tested dose of docetaxel was be 75 mg/m^2.
The following inclusion criteria applied to the combination arm (NSCLC): GEN1046 in combination with docetaxel: • NSCLC subjects of any histology may be enrolled. Subjects with a histological or cytological diagnosis of non-squamous NSCLC must not have an EGFR-sensitizing mutation and/or ALK translocation/ROS1 rearrangement. EGFR sensitizing mutations are those mutations that are amenable to treatment with an approved TKI. Documentation of EGFR and ALK status should be available per local assessment.
In one of the six patients the first post-baseline scan was indicative of response according to RECIST Criteria v1.1.

## GEN1046: PD-L1×4-1BB bispecific antibody: PD-L1-547-FEAL combined with CD137-009-HC7LC2-FEAR (SEQ ID NOs: 1, 5, 21, 19; 8, 12, 22, 20)
  Patients whose first post-baseline scan was indicative of response (RECIST v1.1): one
